Earlier results as cited in US20100285127A1, “TASTE MASKED PHARMACEUTICAL COMPOSITIONS OF S-ALKYLISOTHIOURONIUM DERIVATIVES” (priority 2007, published 2010).

Conditions: Zherebchenko 1968; Goloschapova 1981

For “S-ethylisothiouronium diethylphosphate [Difetur]”, the radioprotective effects is listed as “radioprotective effects”.
